# In patent US20060263760A1, “Screening method of substance with antidepressant action” (THE UNIVERSITY OF TOKYO, priority 2005, published 2006):
# System: nerve cells in hippocampus CA1 region of hippocampus sections
# Assay: long-term potentiation of excitatory postsynaptic potential (EPSP) in hippocampus sections, accumulated potential with single glass electrode
# Type: cell-based, rat
# Settings: for EPSP reaction (ratio of largest slope value of accumulated potential to basal slope value defined as 100%): read 60 minutes after stimulation
# Procedure: A specific example of the assessment of substances with antidepressant actions by the screening method is described below. At the cell preparation step in the Example, the brain hippocampus of an adult rat was cut vertically along the longitudinal axis using vibratome (DSK ZERO1, manufactured by DOUSAKA EM K.K), to prepare plural longitudinal cross- sectional sections of a thickness of 400 μm. In this Example, a part of the hippocampus sections is prepared as a candidate substance treatment group, while another part of the hippocampus sections is prepared as a control treatment group and an additional part of the hippocampus sections is prepared as non-treatment group. These hippocampus sections were immersed in an artificial cerebrospinal fluid sufficiently saturated with a mixture gas of oxygen and carbon dioxide (95% oxygen gas, 5% carbon dioxide gas) and left to stand at room temperature for 1.5 hours or more under the purge of the mixture gas from the above over the hippocampus sections. Thereafter, the electrophysiological response was assayed as described below. As the artificial cerebrospinal fluid, an aqueous solution containing 124 mM NaCl, 1.25 mM NaH2PO4.2H2O, 5 mM KCl, 2 mM MgSO4.7H2O, 2 mM CaCl2, 22 mM NaHCO3, and 10 mM glucose was used. […] At the cell preparation step, additionally, the presynaptic fibers in the CA1 regions of the hippocampus sections were repeatedly stimulated at an interval of 20 seconds, using the stimulation electrode, while excitatory postsynaptic potential induced by the electric stimulation was recorded as accumulated potential over about 30 minutes. […] Therefore, it was determined to assess the dimension of the slope in the part M with the most rapid change of the accumulated potential on the stimulation [namely, the largest slope on the earlier side of the assay time period of accumulated potential waveform (on the left side)] […]
Compound,"reduction of the level of the long-term potentiation [dimension (%) of EPSP reaction] (contact to corticosteron 1 μM versus non-treatment group, 60 minutes after high-frequency stimulation)","EPSP reaction (ratio of largest slope value of accumulated potential to basal slope value defined as 100%) (corticosteron 1 μM alone perfused 30 minutes before 100-Hz high-frequency stimulation, non-treatment group about 130%)",EPSP reaction (ratio of largest slope value of accumulated potential to basal slope value defined as 100%) (estradiol 1 nM together with corticosteron 1 μM perfused 30 minutes before 100-Hz high-frequency stimulation)
C[C@]12C[C@H](O)[C@H]3[C@@H](CCC4=CC(=O)CC[C@@]43C)[C@@H]1CC[C@@H]2C(=O)CO [corticosteron],about 20%,about 110%,
C[C@]12CC[C@@H]3c4ccc(O)cc4CC[C@H]3[C@@H]1CC[C@@H]2O [estradiol],,,about 130%
